Results from US20110065595A1, “Method and Test Kit for the Rapid Identification and Characterization of Cells” (priority 2007, published 2011).

Test system: strain B of Bacillus cereus (β-lactamase SF-marker)
Experiment: Sensitivity profile of B. cereus in soil suspension using inducible β-lactamase as SF-marker (iodometric starch-iodine decolorization)
Format: cell-based
Details: for inhibition of the enzymatic reaction / remaining part of the enzymatic reaction: compared with control sample; for increase of time needed for decolorization versus control: compared with control sample (47 seconds); for effect on activity / synthesis of the SF marker (β-lactamase) / sensitivity or resistance of strain B to the antibiotic: judged from decolorization time; for Decolorization time: soil suspension in nutrient broth with 1.0 mcg cloxacillin inducer, 10 min at 30° C., then Assay Reagent with phenoxymethylpenicillin, control without addition 47 seconds, activity inversely proportional to time
Method: Reagents • Nutrient broth and Nutrient Agar were purchased from Difco (cat. No. #233000 and #211665, respectively). • Mueller Hinton agar—purchased from Difco (cat. No. 225250). • Assay Reagent solution—50 mM potassium iodide and 10 mM iodine in 0.75% aqueous starch solution • L-alanine—was used for spore germination (purchased from Fluka, cat no. 29236).
BBL antibiotic sensitivity testing disks were used for sensitivity profiling were placed in respective test tubes:
Preparation of anti-penicillinase antibodies was previously described by the present inventor [Citri, N; et al. Nature 190 (478):1010-1011 (1961)]. Briefly neutralizing antiserum was prepared by immunizing rabbits with a highly purified preparation of exopenicillinase produced by strain 569/H of B. cereus. Twenty mg of the enzyme were administered with Freund's adjuvant in three intramuscular injections at ten-day intervals.
In order to perform a combined characterization of bacteria identification and antibiotic sensitivity profiling, the inventor used a strain of Bacillus cereus expressing the characterizing enzyme β-lactamase (penicillinase) that is used herein as a structural-functional marker (SF-marker).
A colony of strain B of Bacillus cereus was dispersed in 0.5 gm of garden soil suspended in 3 ml of distilled water. Samples of the suspension, 0.3 ml each, were placed in 5 test, tubes, each containing 0.5 ml nutrient broth [double strength] spiked with 1.0 mcg cloxacillin, and each supplemented as listed in Table 1 below. After 10 min. at 30° C. the test was initiated by the addition to each test tube of 0.1 ml of the Assay Reagent solution containing the substrate, phenoxymethylpenicillin [10 mg/mL]. The time required for complete decolorization of the starch-iodine complex by the product of the catalytic reaction was recorded as shown in Table 1.

Row | Compound | inhibition of the enzymatic reaction | remaining part of the enzymatic reaction | increase of time needed for decolorization versus control | effect on activity / synthesis of the SF marker (β-lactamase) | sensitivity or resistance of strain B to the antibiotic | Decolorization time [s]
1 | C[C@H]1c2cccc(O)c2C(=O)C2=C(O)[C@]3(O)C(=O)C(C(N)=O)=C(O)[C@@H](N(C)C)[C@@H]3[C@@H](O)[C@@H]21 [Doxycyclin, Doxycycline] | about 99% | about 0.12% | about 17.3 folds | inhibited | sensitive | 815
2 | CC[C@H]1OC(=O)[C@H](C)[C@@H](O[C@H]2C[C@@](C)(OC)[C@@H](O)[C@H](C)O2)[C@H](C)[C@@H](O[C@@H]2O[C@H](C)C[C@H](N(C)C)[C@H]2O)[C@](C)(O)C[C@@H](C)C(=O)[C@H](C)[C@@H](O)[C@]1(C)O [Erythromycin] | about 99% | about 0.12% | ~18 folds | inhibited | sensitive | >850
3 | Gentamicin | – | – | – | no effect | resistant | 48
